US9458172B2, “Pyridinyl and pyrimidinyl sulfoxide and sulfone derivatives” (priority 2012, dated 2016)
Read-outs that look alike come from different tables or passages of the source.

How the values were obtained:
NAMPT = NAMPT (Homo sapiens (Human), UniProt P43490); experiment: Biochemical Inhibition Assay (NAMPT enzymatic reaction, NMN quantified by mass spectrometry); settings: 33 nM recombinant His-tagged NAMPT, 1 μM NAM, 30 min at rt
Procedure: Assay 1: Biochemical Inhibition Assay
NAMPT protein purification. Recombinant His-tagged NAMPT was produced in E. coli cells, purified over a Ni column, and further purified over a size-exclusion column by XTAL Biostructures.
The NAMPT Enzymatic Reaction. The NAMPT enzymatic reactions were carried out in Buffer A (50 mM Hepes pH 7.5, 50 mM NaCl, 5 mM MgCl2, and 1 mM THP) in 96-well V-bottom plates. The compound titrations were performed in a separate dilution plate by serially diluting the compounds in DMSO to make a 100× stock. […] The compound and enzyme mixture was incubated for 15 min at rt, then 10 μL of 10× substrate and co-factors in Buffer A were added to the test well to make a final concentration of 1 μM NAM, […] 5-Phospho-D-ribose 1-diphosphate (PRPP), and 2.5 mM Adenosine 5′-triphosphate (ATP). The reaction was allowed to proceed for 30 min at rt, then was quenched with the addition of 11 μL of a solution of formic acid and L-Cystathionine to make a final concentration of 1% formic acid and 10 μM L-Cystathionine. Background and signal strength was determined by addition (or non-addition) of a serial dilution of NMN to a pre-quenched enzyme and cofactor mix.
Quantification of NMN. A mass spectrometry-based assay was used to measure the NAMPT reaction product, β-nicotinamide mononucleotide (NMN), and the internal control (L-Cystathionine). NMN and L-Cystathionine were detected using the services of Biocius Lifesciences with the RapidFire system. In short, the NMN and L-Cystathionine were bound to a graphitic carbon cartridge in 0.1% formic acid, eluted in 30% acetonitrile buffer, and injected into a Sciex 4000 mass spectrometer. The components of the sample were ionized with electrospray ionization and the positive ions were detected. […] The fragments are quantified and the analyzed by the following method.
Determination of IC50 Values. First, the NMN signal was normalized to the L-Cystathionine signal by dividing the NMN signal by the L-Cystathionine signal for each well. The signal from the background wells were averaged and subtracted from the test plates.

A2780 cells = experiment: In-Vitro Cell Proliferation Assay (SRB); settings: Homo sapiens, A2780, 72 h
[1] = read-out: Cell Proliferation (IC50)
[2] = read-out: Cell Proliferation (IC50), A2780 cells, 72 h, sulforhodamine B

Sequence of NAMPT (P43490 whole entry): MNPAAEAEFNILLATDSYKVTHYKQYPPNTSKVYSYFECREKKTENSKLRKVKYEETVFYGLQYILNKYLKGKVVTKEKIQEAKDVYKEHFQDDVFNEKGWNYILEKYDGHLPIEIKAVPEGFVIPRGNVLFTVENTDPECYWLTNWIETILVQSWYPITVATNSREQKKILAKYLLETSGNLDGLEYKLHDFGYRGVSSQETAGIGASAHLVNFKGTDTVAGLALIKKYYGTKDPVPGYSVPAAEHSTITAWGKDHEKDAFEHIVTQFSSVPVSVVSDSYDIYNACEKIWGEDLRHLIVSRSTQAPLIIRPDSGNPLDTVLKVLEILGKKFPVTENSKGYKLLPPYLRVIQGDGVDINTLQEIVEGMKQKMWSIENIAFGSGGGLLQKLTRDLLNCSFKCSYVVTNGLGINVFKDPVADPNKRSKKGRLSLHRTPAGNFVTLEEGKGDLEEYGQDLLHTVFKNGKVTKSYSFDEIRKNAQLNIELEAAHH

Compound | IC50 (NAMPT) [µM] | IC50 (A2780 cells; [1]) [µM] | IC50 (A2780 cells; [2]) [µM]
Cn1cc(S(=O)(=O)c2ccc(CNC(=O)c3cc4ccncc4s3)nc2)cn1 [Example 40, Thieno[2,3-c]pyridine-2-carboxylic acid [5-(1-methyl-1H-pyrazole-4-sulfonyl)-pyridin-2-ylmethyl]-amide] | 0.134 | 2 | –
O=C(NCc1ccc(S(=O)(=O)c2ccc(N3CCOCC3)nc2)cn1)c1cnc2[nH]ncc2c1 [Example 41, 1H-Pyrazolo[3,4-b]pyridine-5-carboxylic acid (5-(6-morpholin-4-yl-pyridine-3-sulfonyl)-pyridin-2-ylmethyl]-amide] | 0.019 | 0.0072 | –
O=C(NCc1ccc(S(=O)(=O)C2CCN(C3CCOCC3)CC2)cn1)c1cc2cnccc2[nH]1 [Example 42, 1H-Pyrrolo[3,2-c]pyridine-2-carboxylic acid {5-[1-(tetrahydro-pyran-4-yl)-piperidine-4-sulfonyl]-pyridin-2-ylmethyl)-amide] | 0.249 | 0.0863 | –
CCCn1cc(S(=O)(=O)c2ccc(CNC(=O)c3ccc4nccn4c3)nc2)cn1 [Example 43, Imidazo[1,2-a]pyridine-6-carboxylic acid [5-(1-propyl-1H-pyrazole-4-sulfonyl)-pyridin-2-ylmethyl]-amide] | 0.0273 | 0.0241 | –
CC(C)n1cc(S(=O)(=O)c2ccc(CNC(=O)c3ccc4nccn4c3)nc2)cn1 [Example 44] | 0.0299 | – | 0.02
CN1CCN(c2ccc(S(=O)(=O)c3ccc(CNC(=O)c4ccc5nccn5c4)nc3)cn2)CC1 [Example 46, Imidazo[1,2-a]pyridine-6-carboxylic acid {5-[6-(4-methyl-piperazin-1-yl)-pyridine-3-sulfonyl]-pyridin-2-ylmethyl}-amide] | 0.0069 | 0.0016 | –
CN1CCN(c2ccc(S(=O)(=O)c3ccc(CNC(=O)c4cnc5nccn5c4)nc3)cn2)CC1 [Example 47, Imidazo[1,2-a]pyrimidine-6-carboxylic acid {5-[6-(4-methyl-piperazin-1-yl)-pyridine-3-sulfonyl]-pyridin-2-ylmethyl}-amide] | 0.0022 | 0.0141 | –
CN1CCN(c2ccc(S(=O)(=O)c3ccc(CNC(=O)c4cnc5nccn5c4)nc3)cc2)CC1 [Example 48, Imidazo[1,2-a]pyrimidine-6-carboxylic acid {5-[4-(4-methyl-piperazin-1-yl)-benzenesulfonyl]-pyridin-2-ylmethyl)-amide] | 0.0023 | 0.0085 | –
O=C(NCc1ccc(S(=O)(=O)c2cccc(C(F)(F)F)c2)cn1)N1Cc2ccncc2C1 [Example 49, 1,3-Dihydro-pyrrolo[3,4-c]pyridine-2-carboxylic acid [5-(3-trifluoromethyl-benzenesulfonyl)-pyridin-2-ylmethyl]-amide] | 0.0037 | 0.0345 | –
O=C(NCc1ccc(S(=O)(=O)c2cccc(OC(F)(F)F)c2)cn1)N1Cc2ccncc2C1 [Example 50, 1,3-Dihydro-pyrrolo[3,4-c]pyridine-2-carboxylic acid [5-(3-trifluoromethoxy-benzenesulfonyl)-pyridin-2-ylmethyl]-amide] | 0.0034 | 0.0135 | –
O=C(NCc1ccc(S(=O)(=O)C2CCOCC2)cn1)c1cc2ccncc2o1 [Example 51, Furo[2,3-c]pyridine-2-carboxylic acid [5-(tetrahydro-pyran-4-sulfonyl)-pyridin-2-ylmethyl]-amide] | 0.17 | 0.301 | –
O=C(NCc1ccc(S(=O)(=O)c2ccc(N3CCOCC3)nc2)cn1)c1cc2ccncc2o1 [Example 52, Furo[2,3-c]pyridine-2-carboxylic acid [5-(6-morpholin-4-yl-pyridine-3-sulfonyl)-pyridin-2-ylmethyl]-amide] | 0.002 | – | 0.0005
O=C(NCc1ccc(S(=O)(=O)C2CCOCC2)cn1)c1cc2ccncc2s1 [Example 53, Thieno[2,3-c]pyridine-2-carboxylic acid [5-(tetrahydro-pyran-4-sulfonyl)-pyridin-2-ylmethyl]-amide] | 0.0921 | 0.548 | –
O=C(NCc1ccc(S(=O)(=O)c2ccc(N3CCOCC3)nc2)cn1)c1cc2ccncc2s1 [Example 54, Thieno[2,3-c]pyridine-2-carboxylic acid [5-(6-morpholin-4-yl-pyridine-3-sulfonyl)-pyridin-2-ylmethyl]-amide] | 0.0017 | 0.0005 | –
O=C(NCc1ccc(S(=O)(=O)C2CCN(C3COC3)CC2)cn1)c1cc2ccncc2s1 [Example 56, Thieno[2,3-c]pyridine-2-carboxylic acid [5-(1-oxetan-3-yl-piperidine-4-sulfonyl)-pyridin-2-ylmethyl]-amide] | 0.0259 | 0.0151 | –
O=C(NCc1ccc(S(=O)(=O)C2CCCCC2)cn1)N1Cc2ccncc2C1 [Example 59, 1,3-Dihydro-pyrrolo[3,4-c]pyridine-2-carboxylic acid (5-cyclohexanesulfonyl-pyridin-2-ylmethyl)-amide] | 0.0275 | – | 0.237
O=C(NCc1ccc(S(=O)(=O)C2CCOCC2)cn1)c1ccc2nccn2c1 [Example 60, Imidazo[1,2-a]pyridine-6-carboxylic acid [5-(tetrahydro-pyran-4-sulfonyl)-pyridin-2-ylmethyl]-amide] | 0.693 | 1.3 | –
COc1ccc(S(=O)(=O)c2ccc(CNC(=O)c3ccc4nccn4c3)nc2)cc1OC [Example 65, Imidazo[1,2-a]pyridine-6-carboxylic acid [5-(3,4-dimethoxy-benzenesulfonyl)-pyridin-2-ylmethyl]-amide] | 0.0307 | 0.007 | –
COc1ccc(S(=O)(=O)c2ccc(CNC(=O)c3cc4ccncc4o3)nc2)cc1OC [Example 66, Furo[2,3-c]pyridine-2-carboxylic acid [5-(3,4-dimethoxy-benzenesulfonyl)-pyridin-2-ylmethyl]-amide] | 0.0028 | 0.0028 | –
CN(C)c1ccc(S(=O)(=O)c2ccc(CNC(=O)c3cc4ccncc4o3)nc2)cn1 [Example 67, Furo[2,3-c]pyridine-2-carboxylic acid [5-(6-dimethylamino-pyridine-3-sulfonyl)-pyridin-2-ylmethyl]-amide] | 0.0026 | 0.0019 | –
CN(C)c1ccc(S(=O)(=O)c2ccc(CNC(=O)c3cnc4nccn4c3)nc2)cn1 [Example 69, Imidazo[1,2-a]pyrimidine-6-carboxylic acid (5-(6-dimethylamino-pyridine-3-sulfonyl)-pyridin-2-ylmethyl]-amide] | 0.0054 | 0.0259 | –
COc1ccc(S(=O)(=O)c2ccc(CNC(=O)c3cnc4[nH]ncc4c3)nc2)cc1OC [Example 70, 1H-Pyrazolo[3,4-b]pyridine-5-carboxylic acid [5-(3,4-dimethoxy-benzenesulfonyl)-pyridin-2-ylmethyl]-amide] | 0.0485 | – | 0.0246
O=C(NCc1ccc(S(=O)(=O)c2cc(F)cc(F)c2)cn1)N1Cc2ccncc2C1 [Example 73, 1,3-Dihydro-pyrrolo[3,4-c]pyridine-2-carboxylic acid [5-(3,5-difluoro-benzenesulfonyl)-pyridin-2-ylmethyl]-amide] | 0.0173 | 0.0765 | –
CN(C)c1ncc(S(=O)(=O)c2ccc(CNC(=O)c3ccc4nccn4c3)nc2)s1 [Example 74, Imidazo[1,2-a]pyridine-6-carboxylic acid [5-(2-dimethylamino-thiazole-5-sulfonyl)-pyridin-2-ylmethyl]-amide] | 0.0078 | 0.0024 | –
CN(C)c1ncc(S(=O)(=O)c2ccc(CNC(=O)c3cc4ccncc4s3)nc2)s1 [Example 75, Thieno[2,3-c]pyridine-2-carboxylic acid [5-(2-dimethylamino-thiazole-5-sulfonyl)-pyridin-2-ylmethyl]-amide] | 0.0022 | 0.0008 | –
CCCn1cc(S(=O)(=O)c2ccc(CNC(=O)c3cc4ccncc4s3)nc2)cn1 [Example 76, Thieno[2,3-c]pyridine-2-carboxylic acid [5-(1-propyl-1H-pyrazole-4-sulfonyl)-pyridin-2-ylmethyl]-amide] | 0.0031 | 0.009 | –
O=C(NCc1ncc(S(=O)(=O)c2cccc(C(F)(F)F)c2)cn1)c1ccc2nccn2c1 [Example 77, Imidazo[1,2-a]pyridine-6-carboxylic acid [5-(3-trifluoromethyl-benzenesulfonyl)-pyrimidin-2-ylmethyl]-amide] | 0.0176 | 0.0165 | –
O=C(NCc1ccc(S(=O)(=O)c2ccc(C(F)(F)F)nc2)cn1)c1cc2ccncc2s1 [Example 78, Thieno[2,3-c]pyridine-2-carboxylic acid [5-(6-trifluoromethyl-pyridine-3-sulfonyl)-pyridin-2-ylmethyl]-amide] | 0.0594 | 0.551 | –
